The values that follow come from patent publication USRE31071E, “6-Aza-3H-1,4-benzodiazepines” (Deutsche Gold- und Silber-Scheideanstalt vormals Roessler, priority 1971, dated 1982).

Test system in one test: not given
Experiment: not given
Conditions: in words; cited from earlier work.
Regarding `CN(C)CCOC(C)(c1ccccc1)c1ccc(Cl)cc1` (stereo not drawn) [chlorphenoxamine], the antihistamine activity result is recorded as “antihistamine activity reduced”.

Test system in a further test: not given
Experiment: not given
Conditions: J. Amer. Med. Ass. Vol. 170 (1959); cited from earlier work.
Consider `CN(C)CCOC(C)(c1ccccc1)c1ccc(Cl)cc1` (stereo not drawn) [chlorphenoxamine], for which the anticholinergic activity result is given as “strengthening of its anticholinergic activity”.

In a further test the test system is mice. The experiment in a line: rotating rod test (ataxic activity). The format is in vivo. As to conditions: quotient of ataxic to anxiolytic activity, orally, should be as large as possible. The text has this:
Furthermore, there is given in this table the ataxic activity. The ratio of ataxic activity to the anxiolytic activity is of the greatest significance in using a material as an anxiolytic agent. This quotient should be as large as possible since an ataxic activity is undesirable. Ataxic activity means that the coordination of the muscular movements is disturbed--ataxicdisturbance of the muscular coordination. This means at the dosage at which a marked anxiolytic acitvity is present there should not be found a noteworthy ataxice. The toxicity, in case the data exists above the ataxic activity, is no longer important since the amount which is toxic is always considerably higher than the amount at which 50% (ED50) of the animals have an ataxic effect. The ataxic effect was measured on mice on the pattern of the rotating rod.
In the rotating rod test the animals (mice) were firest placed on a rotating rod 15 minutes after the application of the test material and then were placed on the rotating rod every 15 minutes and the animals which fell down within 2 minutes measured positive. From the number of animals which fell down expressed in percent there were drawn time-effect curves and the areas defined by it entered as percent effect in a probability network, the dosage-effect-line prepared and the ED50 read off. The ED50 mg/kg body weight of the mouse again specifies the dosage at which 50% of all the animals show a typical ataxic effect.
As to `CC1N=C(c2ccccc2)c2nc(Cl)ccc2NC1=O` (racemic) [Example 4, 3-Methyl-5-phenyl-6-aza-7-chloro-1,2-dihydro-3H-1,4-benzodiazepinone-(2)], the “ED50 Rotating Rod / ED50 Card. Shock” value was found to be 4.3.

For the molecule `O=C1CN=C(c2ccccc2Cl)c2nc(Cl)ccc2N1` [Example 6, 5-(o-Chlorophenyl)-6-aza-7-chloro-1,2-dihydro-3H-1,4-benzodiazepinone-(2)], the “ED50 Rotating Rod / ED50 Card. Shock” value came out at 16.5.

On to `CN1C(=O)CN=C(c2ccccc2F)c2nc(Cl)ccc21` [Example 9, 1-Methyl-5-(o-fluorophenyl)-6-aza-7-chloro-1,2-dihydro-3H-1,4-benzodiazepinone-(2)], for which the “ED50 Rotating Rod / ED50 Card. Shock” value came to 6.1.

With `O=C1CN=C(c2ccccc2F)c2nc(Cl)ccc2N1` [Example 10, 5-(-Fluorophenyl)-6-aza-7-chloro-1,2-dihydro-3H-1,4-benzodiazepinone-(2)], the “ED50 Rotating Rod / ED50 Card. Shock” value is 10.4.

With `O=C(O)CCC(=O)OC1N=C(c2ccccc2Cl)c2nc(Cl)ccc2NC1=O` (stereo not drawn) [Example 12], the “ED50 Rotating Rod / ED50 Card. Shock” value was determined as 13.5.

With `O=C1Nc2ccc(Cl)nc2C(c2ccccc2Cl)=NC1O` (stereo not drawn) [Example 13, 3-Hydroxy-5-o-chlorophenyl-6-aza-7-chloro-1,2-dihydro-3H-1,4-benzodiazepinone-(2)], the “ED50 Rotating Rod / ED50 Card. Shock” value is reported as 15.0.

Regarding `CC(=O)OC1N=C(c2ccccc2Cl)c2nc(Cl)ccc2N(C(C)=O)C1=O` (stereo not drawn) [Example 15, 1-Acetyl-3-acetoxy-5-(o-chlorophenyl)-6-aza-7-chloro-1,2-dihydro-3H-1,4-benzodiazepinone-(2)], the “ED50 Rotating Rod / ED50 Card. Shock” value was found to be 6.7.

For the molecule `CN1C(=O)CN=C(c2ccccc2)c2nc(Cl)ccc21` [Example 17, 1-Methyl-5-phenyl-6-aza-7-chloro-1,2-dihydro-3H-1,4-benzodiazepinone-(2)], the “ED50 Rotating Rod / ED50 Card. Shock” value is 6.2.

Turning to `C=CCN1C(=O)CN=C(c2ccccc2)c2nc(Cl)ccc21` [Example 18, 1-Allyl-5-phenyl-6-aza-7-chloro-1,2-dihydro-3H-1,4-benzodiazepinone-(2)], the “ED50 Rotating Rod / ED50 Card. Shock” value is 8.2.

As for `O=C1CN=C(c2ccccc2)c2nc(Cl)ccc2N1CC1CC1` [Example 19], the “ED50 Rotating Rod / ED50 Card. Shock” value is 7.7.

For `CN1C(=O)CN=C(c2ccccc2Cl)c2nc(Cl)ccc21` [Example 21, 1-Methyl-5-(o-chlorophenyl)-6-aza-7-chloro-1,2-dihydro-3H-1,4-benzodiazepinone-(2)], the “ED50 Rotating Rod / ED50 Card. Shock” value was found to be 10.2.

For the molecule `CN1C(=S)CN=C(c2ccccc2Cl)c2nc(Cl)ccc21` [Example 24, 1-Methyl-5-(o-chlorophenyl)-6-aza-7-chloro-1,2-dihydro-3H-1,4-benzodiazepinthione-(2)], the “ED50 Rotating Rod / ED50 Card. Shock” value is 12.5.

Test system in the next test: not given
Experiment: not given
Conditions: First Int. Pharmacological Meeting, Vol. 7; cited from earlier work.
For the molecule `CC(NN)c1ccccc1` (stereo not drawn) [alpha phenyl-ethyl hydrazine], the “stimulating activity / sedative action” value is given as “strong stimulating activity”.
